# Reference: the METLIN SMRT retention time set (Domingo-Almenara et al. 2019)
# Test: gradient 5% acetonitrile 3 min, to 50% in 2 min, to 85% in 15 min, held 3 min, 100 µL/min
# Settings: column: Zorbax Extend-C18 2.1 x 50 mm; eluents: water / acetonitrile, 0.1% formic acid
# How it was run: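 Standards, all pure, were combined into mixtures of ~100 molecules and run at 100 μL/min on a Zorbax Extend-C18 column (2.1 × 50 mm, 1.8 μm) with water and acetonitrile, each containing 0.1% formic acid. A coupled quadrupole time-of-flight mass spectrometer operated in positive and negative ionization mode. Retention time values come from computationally picked adduct peaks, each inspected manually.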
row,SMILES,RP-LC retention time
1,O=C(NCCCN1CCN(c2ccccc2F)CC1)c1nnc(-c2ccccc2)o1,664 s
2,CC(=O)Nc1ccc(-c2noc(C3CCN(C(=O)C4CC4)CC3)n2)cc1,689 s
3,CCc1ccc(S(=O)(=O)c2cnc(N3CCN(c4ccccc4OC)CC3)nc2N)cc1,1080 s
4,CC(O)c1ccc(-c2ccc(CNCCCn3ccnc3)o2)cc1 (stereo not drawn),513 s
5,CC(C)(C)c1csc(-c2csc(S(=O)(=O)Nc3ccc(F)cc3)c2)n1,1220 s
6,CC(=O)c1cccc(NC(=O)Cn2nc3c(cc2=O)CN(C(C)=O)CC3)c1,601 s
7,Cc1ccc(CNC(=O)c2nc3cccnc3n(C)c2=O)cc1,787 s
8,Cc1cccc(-n2ncc3c(NCCCN4CCCC4=O)ncnc32)c1,682 s
9,Cc1nc(-c2ccc(-c3noc(COc4ccc(F)cc4)n3)cc2)cs1,1160 s
10,O=C(Cn1nc2c(N3CCSCC3)nccn2c1=O)Nc1ccc2c(c1)OCCO2,737 s
11,CC(C)(C)NC(=O)Cn1ccn2nc(-c3ccc(F)cc3)c(CO)c2c1=O,738 s
12,CC(C)CN(CCCNC(=O)C1CCN(c2cnn(C)c(=O)c2)C1)CC(C)C (stereo not drawn),589 s
13,COC(=O)c1ccc(CN2CCN(c3cnn4c(C5CC5)nnc4c3)CC2)cc1,571 s
14,COCCNC(=O)Cn1c(N2CCCC2)nc(COC)cc1=O,570 s
15,CC(C)NC(=O)CSc1nccnc1N1CCN(c2ccccc2)CC1,867 s
16,O=C(Nc1c(F)cccc1F)N1CCC(c2ccccc2)C1 (stereo not drawn),767 s
17,Cc1cncn(CC(=O)Nc2ccccc2Cl)c1=O,608 s
18,CC(C)c1cc(C(=O)Nc2ccc(C#N)cc2)nc2ccnn12,1030 s
19,Cc1ccccc1-n1ccn(Cc2nc(-c3cccc(Br)c3)no2)c(=O)c1=O,931 s
20,CC(=O)N1CCc2cc(-c3ccc(C(=O)NCCN4CCCCC4)cc3)ccc21,616 s
21,CCOc1cccc(-c2noc(Cn3c(=O)n(-c4cccc(F)c4)c(=O)c4sccc43)n2)c1,1040 s
22,CCn1ccc2sc(C)c(C(=O)NCc3ccc(C)cc3)c2c1=O,850 s
23,CCOc1ccccc1-c1nc(-c2cn(-c3cccc(F)c3)nn2)no1,936 s

row,SMILES,RP-LC retention time
1,Cc1ccc2oc(-c3nnc(C(=O)NCCN4CCOCC4)o3)c(C)c2c1,667 s
2,O=C([C@@H]1C[C@H](F)CN1S(=O)(=O)c1ccc(Cl)s1)N1CCc2ccccc2C1,955 s
3,COCCN(CC(=O)N1CCc2sccc2C1COc1ccc(Cl)cc1)C(=O)C1CC1 (stereo not drawn),931 s
4,COc1ccc(C(=O)N2C[C@@H](Oc3cccnc3)C[C@H]2C(N)=O)c(OC)n1,572 s
5,O=C(CN1C(=O)C2CCCCN2c2ccc(C(=O)N3CCCC3)cc21)Nc1cccc(Cl)c1 (stereo not drawn),676 s
6,CC(C)c1nc2cc3c(cc2n1CC(=O)Nc1ccc2c(c1)OCCO2)OCCO3,654 s
7,Clc1ccc(-c2nc3cnccn3c2Nc2ccc3c(c2)OCCO3)cc1,891 s
8,O=C1NCCCCCCN(C(=O)Nc2ccc3c(c2)OCCO3)[C@H]2CCCC[C@@H]12,808 s
9,COc1ccccc1NC(=O)N1CCC2(CC1)NC(=O)c1ccc(Cl)cc1N2C,806 s
10,CCCn1c(C2CCN(C(=O)Nc3cccc(C)c3)C2)nc2cccnc21 (stereo not drawn),713 s
11,CCCNC(=O)Cn1c(=O)c2cnc(-c3ccc(Cl)cc3)nc2n(C)c1=O,909 s
12,Cc1ccc(C)c(NC(=O)N2CC(n3cnnc3-c3ccccc3)C2)c1,712 s
13,CCCn1nnc(NCc2ccc(-c3cccc(Cl)c3C)o2)n1,1130 s
14,COc1cccc(NC(=O)CN2C(=O)NC3(CCC(C)CC3)C2=O)c1 (stereo not drawn),789 s
15,CC(C)c1ccc(OCC(=O)Nc2nnc(C3CC(=O)N(c4ccc(Cl)cc4)C3)o2)cc1 (stereo not drawn),943 s
16,CC(C)c1ccc(NC(=O)Cn2ccc3c(=O)n(C)c(=O)n(C)c32)cc1,772 s
17,O=C(Cc1nnc2cc(-c3nc(C4CC4)no3)ccn12)Nc1ccc(Cl)cc1,816 s
18,CCC(=O)N(C)CCc1noc(COc2cccc(C(F)(F)F)c2)n1,842 s
19,CCc1nc(-c2cccc(-c3noc(COc4ccc(OC)cc4)n3)c2)cs1,1270 s
20,O=C(CN1C(=O)CCCc2cc(S(=O)(=O)N3CCCC3)ccc21)Nc1ccc(F)cc1Cl,857 s
21,O=C(C1CCN(c2nc3cccnc3s2)CC1)N1CCCCC1,713 s
22,COc1ccc(Nc2c(-c3ccc(C(=O)O)cc3)nc3cnccn23)cc1OC,663 s
23,O=c1c2c(CO)c(-c3ccccc3)nn2ccn1Cc1ccc(Br)cc1,1010 s

row,SMILES,RP-LC retention time
1,Cc1csc(-c2cc(S(=O)(=O)NC(C)(C)C)c(C)n2C)n1,914 s
2,CCCCc1ccc(NC(=O)N2CCC3(C2)c2nc[nH]c2CCN3C)cc1 (stereo not drawn),565 s
3,COc1ccc(-c2ncc3c(n2)CCN(C(=O)Nc2ccccc2Br)C3)cc1,961 s
4,CCOc1ccc(-c2csc(Nc3ccc(F)cn3)n2)cc1,1100 s
5,Cc1nn(C)cc1CN(C)C(=O)NC1CCCCC1,611 s
6,Cc1ccc(-c2nc(Nc3ccc(Br)cc3)sc2CC(=O)O)c(C)c1,1090 s
7,Cc1ccc(-c2noc(C3CC(=O)N(c4ccc(Cl)cc4)C3)n2)cc1 (stereo not drawn),1060 s
8,CCOc1ccc(NC(=O)c2cc(C)n3nc(C)cc3n2)cc1,976 s
9,COCc1cc(=O)n(CC(=O)Nc2cc(Cl)ccc2C)c(N2CCOCC2)n1,895 s
10,O=C(Nc1cccc(Cl)c1)C(=O)c1cn(CC(=O)N2CCOCC2)c2ccccc12,997 s
11,COc1ccc(-c2nnc(-c3ccc(Cl)c(S(=O)(=O)N4CCCC4)c3)o2)cc1,1060 s
12,N[C@H]1CCN(O)C1=O,627 s
13,O=C(NC1CCCCC1)c1ccc(Cn2cncn2)cc1,671 s
14,COCCCCC(=NOCCN)c1ccc(C(F)(F)F)cc1,734 s
15,Cc1cc2nc(CSc3nnc(-c4cccc(Cl)c4)o3)cc(=O)n2o1,792 s
16,COc1ccc(-c2noc(Cn3nc(-c4ccccc4)ccc3=O)n2)c(OC)c1,880 s
17,COc1ccc(OC)c(NC(=O)C2CCCN2S(=O)(=O)c2cc3c(cc2Cl)NC(=O)CO3)c1 (stereo not drawn),829 s
18,CCNc1cc(N2CCC(CCC(=O)NCCc3cccs3)CC2)ncn1,570 s
19,Cc1ccc(/C=C/c2nc(-c3ccc4c(c3)oc(=O)n4C(C)C)no2)o1,659 s
20,COc1ccc(OC)c(-c2ccc(=O)n(CC(=O)Nc3ccc(-n4cnnn4)cc3)n2)c1,689 s
21,Cc1ccc(CNC(=O)C2CCN(c3ncccc3S(=O)(=O)N3CCCCC3)CC2)cc1,960 s
22,CC(=O)N1N=C(c2ccc(Br)cc2)CC1c1ccc2ncccc2c1 (stereo not drawn),677 s
